Assay results taken from the NIST ThermoML archive (doi:10.1021/je100341q).
Numbers after ± are expanded uncertainties.

What was measured:
[1] = for mass density: 293.15 K, 101.33 kPa, Liquid, Pycnometric method; for Normal melting temperature: Crystal, DTA
[2] = refractive index (Na D-line) (dimensionless); settings: 293.15 K; 101.33 kPa; Liquid; Standard Abbe refractometry
[3] = Molar enthalpy of transition or fusion; settings: Crystal; DSC

Compound	mass density [1]	refractive index [2]	Normal melting temperature [1]	Molar enthalpy of transition or fusion [3]
c1ccncc1 [pyridine]	983 ± 1 kg/m3	1.5095 ± 0.0007	–	–
ClCCl [dichloromethane]	1321 ± 1 kg/m3	1.4237 ± 0.0007	–	–
CC#N [acetonitrile]	783 ± 1 kg/m3	1.343 ± 0.0007	–	–
O=P1(O)OCC2(CO1)COP(=O)(O)OC2 (stereo not given)	–	–	310.57 ± 0.5 °C	5.37 ± 0.17 kcal/mol
CCOCCO [2-ethoxyethan-1-ol]	929 ± 1 kg/m3	1.4065 ± 0.0007	–	–
O=P(O)(CO)c1ccccc1 [(hydroxymethyl)(phenyl)phosphinic acid]	–	–	140.2 ± 0.5 °C	6.49 ± 0.196 kcal/mol
COc1ccc(P(=O)(c2ccc(OC)cc2)c2ccc(OC)cc2)cc1 [tris(4-methoxyphenyl)phosphine oxide]	–	–	144.69 ± 0.5 °C	6.82 ± 0.194 kcal/mol
C1COCCO1 [1,4-dioxane]	1034 ± 1 kg/m3	1.4175 ± 0.0008	–	–
Cc1ccccc1 [toluene]	866 ± 1 kg/m3	1.4967 ± 0.0007	–	–
c1ccccc1 [benzene]	879 ± 1 kg/m3	1.5011 ± 0.0007	–	–
CCC(C)=O [butanone]	805 ± 1 kg/m3	1.3788	–	–
ClC(Cl)Cl [trichloromethane]	1484 ± 2 kg/m3	1.4476 ± 0.0007	–	–
CC(C)=O [acetone]	790 ± 1 kg/m3	1.359 ± 0.0007	–	–
CO [methanol]	792 ± 1 kg/m3	1.3301 ± 0.0007	–	–
CCO [ethanol]	790 ± 1 kg/m3	1.366 ± 0.0007	–	–
C1CCCCC1 [cyclohexane]	779 ± 1 kg/m3	1.4266 ± 0.0007	–	–
COc1ccc(P(c2ccc(OC)cc2)c2ccc(OC)cc2)cc1 [tris(4-methoxyphenyl)phosphane]	–	–	130.67 ± 0.5 °C	6.14 ± 0.186 kcal/mol
CCOCC [diethyl ether]	714 ± 1 kg/m3	1.3497 ± 0.0007	–	–
CCOC(C)=O [ethyl acetate]	899 ± 1 kg/m3	1.3719 ± 0.0007	–	–
C1CCOC1 [tetrahydrofuran]	–	1.405 ± 0.0008	–	–
CC(=O)O [acetic acid]	1049 ± 1 kg/m3	1.3716 ± 0.0007	–	–
O=C(O)CCP(=O)(O)c1ccccc1 [3-(hydroxy(phenyl)phosphoryl)propanoic acid]	–	–	159.51 ± 0.5 °C	8.03 ± 0.232 kcal/mol
O=P1(Oc2ccccc2)OCC2(CO1)COP(=O)(Oc1ccccc1)OC2 (stereo not given)	–	–	196.43 ± 0.5 °C	8.71 ± 0.239 kcal/mol
